In patent US11851449B2, “Heterocyclic amide compounds having an RORvt inhibitory action” (TAKEDA PHARMACEUTICAL COMPANY LIMITED, priority 2013, dated 2023) one finds inhibition data, which are given here for 19 compounds.

Structures can show the parent of a compound that is named as a salt.

For assay [1], the target named is T1, RORγt (Homo sapiens, UniProt P51449).
T1 sequence (P51449 1-497 isoform P51449-2): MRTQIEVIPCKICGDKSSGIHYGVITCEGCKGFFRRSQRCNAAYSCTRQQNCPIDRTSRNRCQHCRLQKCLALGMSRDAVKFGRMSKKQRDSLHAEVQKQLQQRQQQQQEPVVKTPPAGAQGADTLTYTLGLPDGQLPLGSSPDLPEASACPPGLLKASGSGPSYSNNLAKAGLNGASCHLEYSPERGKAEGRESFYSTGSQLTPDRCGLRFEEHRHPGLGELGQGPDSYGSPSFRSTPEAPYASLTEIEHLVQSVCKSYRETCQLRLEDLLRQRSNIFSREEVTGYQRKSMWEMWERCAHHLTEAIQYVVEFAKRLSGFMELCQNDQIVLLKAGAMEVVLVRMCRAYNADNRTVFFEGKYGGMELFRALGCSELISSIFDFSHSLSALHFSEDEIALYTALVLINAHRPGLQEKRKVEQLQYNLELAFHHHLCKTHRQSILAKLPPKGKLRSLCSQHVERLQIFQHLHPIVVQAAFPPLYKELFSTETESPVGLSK
Nature of the assay: RORγt binding test (TR-FRET, fluorescent-labeled cholesterol). The settings on record: read-out: binding inhibitory rate (%) of fluorescent-labeled cholesterol to RORγt at test compound 1 μM. Put shortly:
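His-tagged RORγt and BODIPY-cholesterol were incubated with compound for 20 min at room temperature in Tris-HCl pH 7.5, 100 mM NaCl, 1 mM DTT and 0.1% BSA. Terbium anti-His antibody was then added for a further 20 min.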

In assay [2] the target is T1, RORγt. Nature of the assay: Jurkat reporter test (human IL-17 ROR response element luciferase reporter). It is filed as cell-based. The settings on record: Jurkat, read-out: luminescence level inhibitory rate (%) at test compound 3 μM. The method in brief: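 Jurkat cells were electroporated (1350 V, 10 ms, 3 pulses) with reporter constructs, then cultured overnight with compound in RPMI containing 10% lipid-reduced FCS, 10 mM HEPES pH 7.5 and 5 μM lovastatin. Luciferase was quantified by Bright-Glo luminescence after 10 min at room temperature.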
For orientation: A reporter such as luciferase makes a cellular process visible.

Assay [3] addresses T1, RORγt. Nature of the assay: Cofactor recruitment test (Alpha Screen, biotinylated SRC-1 peptide). It is filed as biochemical. As to conditions: read-out: signal value inhibitory rate (%) at test compound 1 μM. Here is the method:
Cofactor Recruitment Test
Cofactor recruitment test was performed by Alpha Screen (Histidine Detection Kit, PerkinElmer) method. First, a test compound was diluted with an assay buffer (50 mM Tris-HCl (pH 7.5), 50 mM KCl, 1 mM DTT, 0.1% BSA) and added to a 384 well plate by 5 μL. […] The mixture was stood in a dark place for 1 hr, and the signal value was measured by Envision (PerkinElmer).

Turning to `COCc1ccc([C@@H](NC(=O)CCS(C)(=O)=O)C(=O)Nc2ccc([Si](C)(C)C)c(F)c2)cc1` [Example 80, N-((1R)-2-((3-fluoro-4-(trimethylsilyl)phenyl)amino)-1-(4-(methoxymethyl)phenyl)-2-oxoethyl)-3-(methylsulfonyl)propanamide], the inhibition at 1 µM was 102% on RORγt [1] and 93.8% at RORγt [3]. The inhibition at 3 µM at RORγt [2] was determined as 100%.
Regarding `COCc1ccc([C@@H](NC(=O)CS(C)(=O)=O)C(=O)Nc2ccc([Si](C)(C)C)c(F)c2)cc1` [Example 81, (2R)—N-(3-fluoro-4-(trimethylsilyl)phenyl)-2-(4-(methoxymethyl)phenyl)-2-(((methylsulfonyl)acetyl)amino)acetamide], the inhibition at 1 µM amounted to 103% on RORγt [1] and 94.9% at RORγt [3]. Also, the inhibition at 3 µM on RORγt [2] stood at 98.3%.
On the same counts, the results for `COCc1ccc([C@@H](NC(=O)c2cc(O)no2)C(=O)Nc2cc(F)c([Si](C)(C)C)c(F)c2)cc1` [Example 82, N-((1R)-2-((3,5-difluoro-4-(trimethylsilyl)phenyl)amino)-1-(4-(methoxymethyl)phenyl)-2-oxoethyl)-3-hydroxy-1,2-oxazole-5-carboxamide] are 103%, 96.8% and 97%.
On the same counts, the results for `COc1ccc([C@@H](NC(=O)c2cc(O)no2)C(=O)Nc2ccc([Si](C)(C)C)c(F)c2)cc1` [Example 83, N-((1R)-2-((3-fluoro-4-(trimethylsilyl)phenyl)amino)-1-(4-methoxyphenyl)-2-oxoethyl)-3-hydroxy-1,2-oxazole-5-carboxamide] are 100%, 86.5% and 63.2%.
For `COCc1ccc([C@@H](NC(=O)C2CC2(F)F)C(=O)Nc2ccc([Si](C)(C)C)c(F)c2)cc1` (stereo partly drawn) [Example 84, 2,2-difluoro-N-((1R)-2-((3-fluoro-4-(trimethylsilyl)phenyl)amino)-1-(4-(methoxymethyl)phenyl)-2-oxoethyl)cyclopropanecarboxamide] the same measures were 101%, 94.4% and 100%.
For `COCc1ccc([C@@H](NC(=O)CO)C(=O)Nc2ccc([Si](C)(C)C)c(F)c2)cc1` [Example 85, (2R)—N-(3-fluoro-4-(trimethylsilyl)phenyl)-2-(glycoloylamino)-2-(4-(methoxymethyl)phenyl)acetamide], the inhibition at 1 µM on RORγt [1] came to 103%; on RORγt [3], 90.1%. The inhibition at 3 µM at RORγt [2] was 99%.
Regarding `COCc1ccc([C@@H](NC(=O)CNC(C)=O)C(=O)Nc2ccc([Si](C)(C)C)c(F)c2)cc1` [Example 86, N^2-acetyl-N-((1R)-2-((3-fluoro-4-(trimethylsilyl)phenyl)amino)-1-(4-(methoxymethyl)phenyl)-2-oxoethyl)glycinamide], the inhibition at 1 µM on RORγt [1] came to 102%; on RORγt [3], 95.2%. In addition, at RORγt [2], the inhibition at 3 µM was determined as 99.1%.
On the same counts, the results for `COCc1ccc([C@@H](NC(=O)C2CCN(C(C)=O)CC2)C(=O)Nc2ccc([Si](C)(C)C)c(F)c2)cc1` [Example 87, 1-acetyl-N-((1R)-2-((3-fluoro-4-(trimethylsilyl)phenyl)amino)-1-(4-(methoxymethyl)phenyl)-2-oxoethyl)piperidine-4-carboxamide] are 102%, 83.9% and 98.2%.
`COCc1ccc([C@@H](NC(=O)C2CCOCC2)C(=O)Nc2ccc([Si](C)(C)C)c(F)c2)cc1` [Example 88, N-((1R)-2-((3-fluoro-4-(trimethylsilyl)phenyl)amino)-1-(4-(methoxymethyl)phenyl)-2-oxoethyl)tetrahydro-2H-pyran-4-carboxamide]: the figures for the inhibition at 1 µM on RORγt [1] and on RORγt [3] were 103% and 90.7%, respectively. Also, the inhibition at 3 µM on RORγt [2] turned out to be 98.1%.
For `COCc1ccc([C@@H](NC(=O)CC2CCOCC2)C(=O)Nc2ccc([Si](C)(C)C)c(F)c2)cc1` [Example 89, (2R)—N-(3-fluoro-4-(trimethylsilyl)phenyl)-2-(4-(methoxymethyl)phenyl)-2-((tetrahydro-2H-pyran-4-ylacetyl)amino)acetamide] the same measures were 103%, 95.5% and 101%.
On the same counts, the results for `CCNC(=O)N[C@@H](C(=O)Nc1ccc([Si](C)(C)C)c(F)c1)c1ccc(COC)cc1` [Example 90, (2R)-2-((ethylcarbamoyl)amino)-N-(3-fluoro-4-(trimethylsilyl)phenyl)-2-(4-(methoxymethyl)phenyl)acetamide] are 102%, 96% and 101%.
For `COCc1ccc([C@@H](NC(=O)C2CC(F)(F)C2)C(=O)Nc2ccc([Si](C)(C)C)c(F)c2)cc1` [Example 91, 3,3-difluoro-N-((1R)-2-((3-fluoro-4-(trimethylsilyl)phenyl)amino)-1-(4-(methoxymethyl)phenyl)-2-oxoethyl)cyclobutanecarboxamide] the same measures were 102%, 94.6% and 98%.
For `COCc1ccc([C@@H](NC(=O)CCC(F)F)C(=O)Nc2ccc([Si](C)(C)C)c(F)c2)cc1` [Example 92, 4,4-difluoro-N-((1R)-2-((3-fluoro-4-(trimethylsilyl)phenyl)amino)-1-(4-(methoxymethyl)phenyl)-2-oxoethyl)butanamide], the inhibition at 1 µM at RORγt [1] amounted to 102%; on RORγt [3], 92.8%. Also, on RORγt [2], the inhibition at 3 µM was 98.8%.
Take `COCc1ccc([C@@H](NC(=O)CC(F)(F)F)C(=O)Nc2ccc([Si](C)(C)C)c(F)c2)cc1` [Example 93, 3,3,3-trifluoro-N-((1R)-2-((3-fluoro-4-(trimethylsilyl)phenyl)amino)-1-(4-(methoxymethyl)phenyl)-2-oxoethyl)propanamide]: the values for the inhibition at 1 µM at RORγt [1] and on RORγt [3] were 102% and 92.3%, respectively. For the same compound, the inhibition at 3 µM on RORγt [2] amounted to 99.1%.
On the same counts, the results for `COCc1ccc([C@@H](NC(=O)CCC(F)(F)F)C(=O)Nc2ccc([Si](C)(C)C)c(F)c2)cc1` [Example 94, 4,4,4-trifluoro-N-((1R)-2-((3-fluoro-4-(trimethylsilyl)phenyl)amino)-1-(4-(methoxymethyl)phenyl)-2-oxoethyl)butanamide] are 102%, 91.5% and 101%.
For `COCc1ccc([C@@H](NC(=O)N2CC[C@@H](F)C2)C(=O)Nc2ccc([Si](C)(C)C)c(F)c2)cc1` [Example 95, (3R)-3-fluoro-N-((1R)-2-((3-fluoro-4-(trimethylsilyl)phenyl)amino)-1-(4-(methoxymethyl)phenyl)-2-oxoethyl)pyrrolidine-1-carboxamide] the same measures were 99.3%, 93.8% and 99.8%.
As to `COCc1ccc([C@@H](NC(=O)N2CC[C@H](F)C2)C(=O)Nc2ccc([Si](C)(C)C)c(F)c2)cc1` [Example 96, (3S)-3-fluoro-N-((1R)-2-((3-fluoro-4-(trimethylsilyl)phenyl)amino)-1-(4-(methoxymethyl)phenyl)-2-oxoethyl)pyrrolidine-1-carboxamide], the values for the inhibition at 1 µM at RORγt [1] and on RORγt [3] were 98.6% and 91.2%, respectively. For the same compound, the inhibition at 3 µM at RORγt [2] turned out to be 99.5%.
For `COCc1ccc([C@@H](NC(=O)CN2CCOCC2)C(=O)Nc2ccc([Si](C)(C)C)c(F)c2)cc1` [Example 97, (2R)—N-(3-fluoro-4-(trimethylsilyl)phenyl)-2-(4-(methoxymethyl)phenyl)-2-((morpholin-4-ylacetyl)amino)acetamide hydrochloride] the same measures were 102%, 93.6% and 98.3%.
On the same counts, the results for `COCc1ccc([C@@H](NC(=O)c2cc(O)no2)C(=O)Nc2cc(F)c([Si](C)(C)C)cc2F)cc1` [Example 98, N-((1R)-2-((2,5-difluoro-4-(trimethylsilyl)phenyl)amino)-1-(4-(methoxymethyl)phenyl)-2-oxoethyl)-3-hydroxy-1,2-oxazole-5-carboxamide] are 102%, 95.8% and 99.2%.
